In patent US20220211692A1, “Modulators of the Cystic Fibrosis Transmembrane Conductance Regulator Protein and Methods of Use” (AbbVie Global Enterprises Ltd., priority 2021, published 2022):
Where two headings read alike, the source gives them in different places.

What was measured:
[1] = molecular target: T1, F508delCFTR (Homo sapiens, UniProt P13569, DEL508-508); test: Cell Surface Expression-Horse Radish Peroxidase (CSE-HRP) assay in CFBE41o-F508delCFTR-HRP cells; type: cell-based; conditions: for EC50: CFBE41o-F508delCFTR-HRP cells, 18-24 hours at 33° C.; for Emax / Maximum % activity (with co-corrector): normalized to on-plate positive control; for Emax: read-out: Maximum % activity (without co-corrector)
T1 construct: expressed in transfected cells; host or cells: CFBE41o- human lung derived epithelial cell line, doxycycline-induced expression
T1 sequence (P13569 with tags, fused parts or gaps DEL508-508): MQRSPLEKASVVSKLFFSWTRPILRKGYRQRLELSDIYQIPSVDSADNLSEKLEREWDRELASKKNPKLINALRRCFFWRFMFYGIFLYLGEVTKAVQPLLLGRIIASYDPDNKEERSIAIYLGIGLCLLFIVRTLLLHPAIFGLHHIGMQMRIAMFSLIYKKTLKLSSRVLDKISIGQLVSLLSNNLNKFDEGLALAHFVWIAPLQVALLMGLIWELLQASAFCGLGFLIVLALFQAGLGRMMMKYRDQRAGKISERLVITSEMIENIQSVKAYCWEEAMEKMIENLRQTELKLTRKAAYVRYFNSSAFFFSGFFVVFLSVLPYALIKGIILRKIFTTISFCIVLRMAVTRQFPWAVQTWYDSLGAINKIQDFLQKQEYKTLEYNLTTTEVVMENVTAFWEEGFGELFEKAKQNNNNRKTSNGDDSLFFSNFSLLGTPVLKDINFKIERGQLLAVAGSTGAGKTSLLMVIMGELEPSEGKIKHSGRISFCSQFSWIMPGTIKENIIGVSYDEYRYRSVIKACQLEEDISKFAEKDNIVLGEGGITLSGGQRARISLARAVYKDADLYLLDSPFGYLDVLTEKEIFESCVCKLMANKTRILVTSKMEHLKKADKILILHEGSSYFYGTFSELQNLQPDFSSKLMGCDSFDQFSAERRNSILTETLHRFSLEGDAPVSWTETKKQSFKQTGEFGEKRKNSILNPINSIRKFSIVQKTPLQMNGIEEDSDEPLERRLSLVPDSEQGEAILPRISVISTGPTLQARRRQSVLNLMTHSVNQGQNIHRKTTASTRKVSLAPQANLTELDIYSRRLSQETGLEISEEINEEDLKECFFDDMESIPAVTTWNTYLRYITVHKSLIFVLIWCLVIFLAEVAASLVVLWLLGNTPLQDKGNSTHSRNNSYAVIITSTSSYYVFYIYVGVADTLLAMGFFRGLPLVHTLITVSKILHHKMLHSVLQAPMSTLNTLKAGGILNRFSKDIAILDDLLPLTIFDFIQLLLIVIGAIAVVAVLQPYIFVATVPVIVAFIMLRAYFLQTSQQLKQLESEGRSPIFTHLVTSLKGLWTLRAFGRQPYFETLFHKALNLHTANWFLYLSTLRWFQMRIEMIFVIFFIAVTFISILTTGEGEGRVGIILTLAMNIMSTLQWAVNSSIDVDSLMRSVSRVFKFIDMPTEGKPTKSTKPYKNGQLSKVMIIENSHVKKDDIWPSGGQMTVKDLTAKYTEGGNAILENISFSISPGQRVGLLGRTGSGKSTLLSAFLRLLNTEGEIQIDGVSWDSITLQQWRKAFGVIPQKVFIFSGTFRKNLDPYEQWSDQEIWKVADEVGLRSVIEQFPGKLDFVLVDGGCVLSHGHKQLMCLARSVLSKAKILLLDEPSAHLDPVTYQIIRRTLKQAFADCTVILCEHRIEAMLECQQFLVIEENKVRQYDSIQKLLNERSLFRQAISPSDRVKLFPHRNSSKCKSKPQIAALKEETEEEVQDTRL
Description: A cellular assay for measuring the F508delCFTR cell surface expression after correction with test compounds either without or with a co-corrector (2 μM of 3-[(2R,4R)-4-({[1-(2,2-difluoro-1,3-benzodioxol-5-yl)cyclopropyl]carbonyl}amino)-7-methoxy-3,4-dihydro-2H-chromen-2-yl]benzoic acid), was developed in human lung derived epithelial cell line (CFBE41o-) (Veit G et al, (2012) Mol Biol Cell. 23(21): 4188-4202). The development was achieved by expressing the F508delCFTR mutation along with a horseradish peroxidase (HRP) in the fourth exofacial loop, and then measuring the HRP activity using luminescence readout from these cells, CFBE41o-F508delCFTR-HIRP, that were incubated overnight with the test corrector compounds, either without or with the co-corrector. For this primary assay, the CFBE41o-F508delCFTR-HRP cells were plated in 384-well plates (Greiner Bio-one; Cat 781080) at 4,000 cells/well along with 0.5 μg/mL doxycycline to induce the F508delCFTR-HRP expression and further incubated at 37° C., […] for 68-72 hours. The test compounds were then added either without or with a co-corrector at the required concentrations and further incubated for 18-24 hours at 33° C. The highest concentration tested was 20 μM or 30 μM (GI-1 to GIII-36) with an 8-point concentration response curve using a 3-fold dilution in both the test compound without or with the co-corrector. Three replicate plates were run to determine one EC50. All plates contained negative controls (dimethyl sulfoxide, DMSO) and positive control (2 μM or 3 μM (GI-1 to GIII-36) of 3-[(2R,4R)-4-({[1-(2,2-difluoro-1,3-benzodioxol-5-yl)cyclopropyl]carbonyl}amino)-7-methoxy-3,4-dihydro-2H-chromen-2-yl]benzoic acid) as well as on-plate concentration response of the positive control. Post incubation, the plates were washed 5× times with Dulbecco's phosphate buffered saline (DPBS), followed by the addition of the HRP substrate, luminol (50 μL), and measuring the HRP activity using luminescence readout on EnVision® Multilabel Plate Reader (Perkin Elmer; product number 2104-0010). The raw counts from the experiment were analyzed using Accelrys® Assay Explorer v3.3.
Z′ greater than 0.5 was used as passing quality control criteria for the plates. The Z′ is defined as:
1−[3*SDPositive Control+3*SDNegative Control/Absolute(MeanPositive Control−MeanNegative Control)]
The % activity measured at each of the 8 test concentrations of the test compound added either without or with a co-corrector (2 μM or 3 μM (GI-1 to GIII-36) of 3-[(2R,4R)-4-({[1-(2,2-difluoro-1,3-benzodioxol-5-yl)cyclopropyl]carbonyl}amino)-7-methoxy-3,4-dihydro-2H-chromen-2-yl]benzoic acid) was normalized to the on-plate positive control using the following formulae:
% activity (Test compound without co-corrector)=[(test compound without co-corrector response−DMSO response)/(positive control response−DMSO response)]*100
% activity (Test compound with co-corrector)=[(test compound with co-corrector response−DMSO response)/(positive control response−DMSO response)]*100
The maximum % activity achieved for the test compound either without or with a co-corrector at any tested concentration is presented in Table 3 along with the respective EC50's calculated using the following general sigmoidal curve with variable Hill slope equation (described as Model 42 in the Accelrys® Assay Explorer v3.3 software):
General sigmoidal curve with concentration, response, top, bottom, EC50 and Hill slope. This model describes a sigmoidal curve with an adjustable baseline, a. The equation can be used to fit curves where response is either increasing or decreasing with respect to the independent variable, “x”.

[2] = molecular target: T2, F508del/F508del CFTR (Homo sapiens, UniProt P13569, DEL508-508); test: Trans-Epithelial Current Clamp (TECC) assay using primary human bronchial epithelial cells; type: cell-based; conditions: for Emax (% Dual): maximum percent activity relative to positive control (co-corrector 0.15 μM + potentiator 0.45 μM = 100%); for EC50: primary hBE cells F508del/F508del, test corrector with co-corrector and potentiator, 18-24 hours, equivalent CFTR current
T2 construct: cells isolated from CF patients with the homozygous mutation; endogenous in cells; host or cells: primary human bronchial epithelial (hBE) cells from CF patients homozygous for F508del
T2 sequence (P13569 with tags, fused parts or gaps DEL508-508): as above
From the text: A cell-based assay was developed using the primary human bronchial epithelial cells (hBE cells) with F508del/F508del CFTR and other mutations.
Primary human bronchial epithelial (hBE) cells from CFTR patients with homozygous F508del/F508del mutation were expanded from 1×10^6 to 250×10^6 cells (Neuberger, T et al., 2011, Methods Mol Biol 741:39-54). For this purpose, cells isolated from CF patients with the homozygous mutation, procured from the CF center tissue procurement and cell culture core at the Marsico Lung Institute at UNC (Randell), the Cystic Fibrosis translational research center at McGill University (University), and Rosalind Franklin University Medical School (RFUMS) were seeded onto 24 well Corning (Cat #3378) filter plates that were coated with 3T3 conditioned media and grown at an air-liquid interface for 35 days using an Ultroser® G supplemented differentiation media. All the primary human bronchial epithelial cells were collected in accordance with institutional review board approval protocols. Apical surface mucus was removed 72 hours before the experiment by incubating the apical surface of the cells for 30 minutes with 3 mM dithiothreitol (DTT) prepared in Dulbecco's phosphate buffered saline (DPBS) with Ca^2+ and Mg^2+. This was followed with aspiration of the mucus from the apical surface along with DPBS. The apical surface was re-washed with phosphate buffered saline (PBS) incubated for 30 minutes followed with aspiration. These hBE cells were then incubated with the desired concentrations of the test C2 corrector compounds along with co-corrector, 4-[(2R,4R)-4-({[1-(2,2-difluoro-1,3-benzodioxol-5-yl)cyclopropyl]carbonyl}amino)-7-(difluoromethoxy)-3,4-dihydro-2H-chromen-2-yl]benzoic acid and potentiator, (5-{3-amino-5-[4-(trifluoromethoxy)benzene-1-sulfonyl]pyridin-2-yl}-1,3,4-oxadiazol-2-yl)methanol, for 18-24 hours at 37° C., 5% CO2. The desired concentrations of the correctors and potentiator compounds were prepared from the 10 mM stocks in differentiation media and were always applied on the basolateral side of the epithelial cells. We also used an assay format where a fixed concentration of potentiator was added chronically along with the corrector compounds. This chronic treatment with the potentiator helped eliminate any interaction that might happen with CFTR modulators (correctors and potentiators) and thereby determined the true efficacy of the modulator combinations reflective of clinical relevance.
The assay uses a Transepithelial Current Clamp (TECC) (Vu, C B et al., 2017; J Med Chem 60:458-473) instrument that can measure the functionality of the mutated channel by measuring the equivalent CFTR current (IEQ) generated by the polarized primary epithelial cells. We used a TECC-24 with a 24-channel electrode manifold allowing for the simultaneous measurement of the transepithelial voltage, VT, and transepithelial resistance, RT, under current clamp conditions, from 24 filters using a 24 well Costar filter plate. The design of the filters in the 24 well filter plates was exactly the same as the design of an individual Transwell filter used in the classical Ussing Chamber with a surface area of 0.33 cm^2. Each measured VT values were corrected for the electrode offset potential measured using buffer alone in a separate plate, and each measured RT values were then corrected for the combined solution series and empty filter resistances. The corrected VT and RT values were then used to calculate the equivalent current, IEQ using Ohm's law (IEQ=VT/RT). The area under the curve (AUC) for the time period between the forskolin peak IEQ response and at the time of bumetanide addition was also calculated using a one-third trapezoid method, in addition to calculating the IEQ. The assay was run in a 24-well format and all 24-wells were measured at the same time point giving a higher throughput for this assay. […]

[3] = with co-corrector 2 μM, read-out: EC50 (with co-corrector)
[4] = without co-corrector, read-out: EC50 (without co-corrector)

`CCOc1ccc(CC)cc1[C@@]1(C(=O)NS(=O)(=O)c2cccc3nc(C)ccc23)CCCO1` [Example 9, (2R)-2-(2-ethoxy-5-ethylphenyl)-N-(2-methylquinoline-5-sulfonyl)oxolane-2-carboxamide] was tested, and the EC50 [1, 3] was 840 nM, the EC50 [1, 4] was 1650 nM and the Emax ([1]; without co-corrector) was 865%. The “Emax (% Dual)” value [2] was 256 % Dual and the EC50 [2] was 33.7 nM.

`CCOc1ccc(CC)cc1[C@]1(C(=O)NS(=O)(=O)c2cccc3nc(C)ccc23)CCCO1` [Example 10, (2S)-2-(2-ethoxy-5-ethylphenyl)-N-(2-methylquinoline-5-sulfonyl)oxolane-2-carboxamide] was tested, and the EC50 [1, 3] was 2700 nM, the “Maximum % activity (with co-corrector)” value ([1]; with co-corrector 2 μM) was 711% and the EC50 [1, 4] was 3930 nM. The Emax ([1]; without co-corrector) was 303%, the “Emax (% Dual)” value [2] was 129 % Dual and the EC50 [2] was over 300 nM.

For `COc1ccc(C)cc1[C@]1(C(=O)NS(=O)(=O)c2cccc3nc(C)ccc23)CC[C@H](c2ccccc2)O1` [Example 11, (2S,5R)-2-(2-methoxy-5-methylphenyl)-N-(2-methylquinoline-5-sulfonyl)-5-phenyloxolane-2-carboxamide], the EC50 [1, 3] was 1190 nM, the EC50 [1, 4] was 1110 nM and the Emax ([1]; without co-corrector) was 542%. For the same compound, the “Emax (% Dual)” value [2] was 158 % Dual and the EC50 [2] was 17.1 nM.

In the case of `COc1ccc(C)cc1[C@@]1(C(=O)NS(=O)(=O)c2cccc3nc(C)ccc23)CC[C@H](c2ccccc2)O1` [Example 12, (2R,5R)-2-(2-methoxy-5-methylphenyl)-N-(2-methylquinoline-5-sulfonyl)-5-phenyloxolane-2-carboxamide], the EC50 [1, 3] is reported as 680 nM, the EC50 [1, 4] is reported as 700 nM and the Emax ([1]; without co-corrector) is reported as 735%. The “Emax (% Dual)” value [2] was 315 % Dual and the EC50 [2] was 68 nM.

For `CCc1ccc(OC[C@H](C)OC)c([C@]2(C(=O)NS(=O)(=O)c3cccc4nc(C)ccc34)CCCO2)c1` [Example 13, (2S)-2-{5-ethyl-2-[(2S)-2-methoxypropoxy]phenyl}-N-(2-methylquinoline-5-sulfonyl)oxolane-2-carboxamide], the EC50 [1, 3] was 4990 nM, the “Maximum % activity (with co-corrector)” value ([1]; with co-corrector 2 μM) was 399% and the EC50 [1, 4] was 6490 nM. The Emax ([1]; without co-corrector) was 122%, the “Emax (% Dual)” value [2] was 119 % Dual and the EC50 [2] was over 300 nM.

For `COc1ccc(C)cc1[C@@]1(C(=O)NS(=O)(=O)c2cccc3nc(C)ccc23)CC2(CC2)CO1` [Example 15, (6R)-6-(2-methoxy-5-methylphenyl)-N-(2-methylquinoline-5-sulfonyl)-5-oxaspiro[2.4]heptane-6-carboxamide], the EC50 [1, 3] was 1010 nM, the “Maximum % activity (with co-corrector)” value ([1]; with co-corrector 2 μM) was 708% and the EC50 [1, 4] was 1510 nM. The Emax ([1]; without co-corrector) was 307%, the “Emax (% Dual)” value [2] was 178 % Dual and the EC50 [2] was 123 nM.

`COc1ccc(C)cc1[C@]1(C(=O)NS(=O)(=O)c2cccc3nc(C)ccc23)CC2(CC2)CO1` [Example 16, (6S)-6-(2-methoxy-5-methylphenyl)-N-(2-methylquinoline-5-sulfonyl)-5-oxaspiro[2.4]heptane-6-carboxamide] was tested, and the EC50 [1, 3] was 2550 nM, the “Maximum % activity (with co-corrector)” value ([1]; with co-corrector 2 μM) was 444% and the EC50 [1, 4] was 4800 nM. For the same compound, the Emax ([1]; without co-corrector) was 147%, the “Emax (% Dual)” value [2] was 110 % Dual and the EC50 [2] was over 300 nM.

`CCc1ccc(Oc2ccccc2)c(C2(C(=O)NS(=O)(=O)c3cccc4nc(C)ccc34)CCCO2)c1` (stereo not shown) [Example 17, 2-(5-ethyl-2-phenoxyphenyl)-N-(2-methylquinoline-5-sulfonyl)oxolane-2-carboxamide] was tested, and the EC50 [1, 3] was 1560 nM, the EC50 [1, 4] was 2660 nM and the Emax ([1]; without co-corrector) was 931%. For the same compound, the “Emax (% Dual)” value [2] was 229 % Dual and the EC50 [2] was 11.5 nM.

For `COc1ccc(C)cc1[C@@]1(C(=O)NS(=O)(=O)c2cccc3nc(C)ccc23)C[C@@H](C)CO1` [Example 19, (2R,4R)-2-(2-methoxy-5-methylphenyl)-4-methyl-N-(2-methylquinoline-5-sulfonyl)oxolane-2-carboxamide], the EC50 [1, 3] was 720 nM, the “Maximum % activity (with co-corrector)” value ([1]; with co-corrector 2 μM) was 850% and the EC50 [1, 4] was 880 nM. The Emax ([1]; without co-corrector) was 339%, the “Emax (% Dual)” value [2] was 253 % Dual and the EC50 [2] was 33 nM.

With `COc1ccc(C)cc1[C@@]1(C(=O)NS(=O)(=O)c2cccc3nc(C)ccc23)C[C@H](C)CO1` [Example 20, (2R,4S)-2-(2-methoxy-5-methylphenyl)-4-methyl-N-(2-methylquinoline-5-sulfonyl)oxolane-2-carboxamide] the EC50 [1, 3] was 680 nM, the “Maximum % activity (with co-corrector)” value ([1]; with co-corrector 2 μM) was 862% and the EC50 [1, 4] was 1230 nM. The Emax ([1]; without co-corrector) was 366%, the “Emax (% Dual)” value [2] was 201 % Dual and the EC50 [2] was 35.1 nM.

In the case of `CCc1ccc(Oc2cccnc2OC(F)F)c(C2(C(=O)NS(=O)(=O)c3cccc4nc(C)ccc34)CCCO2)c1` (stereo not shown) [Example 21, 2-(2-{[2-(difluoromethoxy)pyridin-3-yl]oxy}-5-ethylphenyl)-N-(2-methylquinoline-5-sulfonyl)oxolane-2-carboxamide], the EC50 [1, 3] is reported as 1290 nM, the EC50 [1, 4] is reported as 1540 nM and the Emax ([1]; without co-corrector) is reported as 857%. For the same compound, the “Emax (% Dual)” value [2] was 199 % Dual and the EC50 [2] was 11.8 nM.
